The values below come from US12103916B2, “Antifungal compounds” (University of Kentucky Research Foundation, priority 2016, dated 2024).

Where two headings read alike, the source gives them in different places. Marks after values point to notes of the source that are not given here. Where only a bound is given, the exact number is not on record here.

The subject of one test is Candida krusei ATCC 6258. Conditions: Table 1; strain I; control azoles; previously reported (refs 5, 16); cited from earlier work.
For test [1], the system named is Candida parapsilosis ATCC 22019. Particulars: Table 1; strain J; control azoles; previously reported (refs 5, 16); cited from earlier work.
Test [2] deals with C. albicans ATCC MYA-1237(R). The experiment in a line: MIC determination, strain F. Type of test: cell-based, Candida albicans. Conditions: Candida albicans. The text has this:
(§1) For all of our azole derivatives we report their MIC-0 values against C. albicans ATCC 10231 (strain A) and all Aspergillus strains (K-M), which correspond to complete growth inhibition of these fungi. […] The MIC values presented for these five control drugs were either tested herein or correspond to our previously published data^5, 16 as indicated in Table 1.
(§2) Antifungal activity in the absence or presence of serum.
(§3) It is important to note that all comparisons to follow will be done by using the MIC values reported in μg/mL as the data were collected that way. However, we also present in parentheses in Table 2 the corresponding values in micromolar.
(§4) In this manuscript, we performed all activity comparisons by using the MIC values reported in μg/mL (Note: the corresponding MIC values are also provided in μM into parentheses in Tables 1, 2, S1, and S2).

Test [3] deals with cell membrane integrity of C. albicans ATCC 10231 (strain A). The test is described as follows: Membrane permeabilization assay (propidium iodide uptake). It counts as cell-based, Candida albicans. Conditions: Ex.3 series; 4×MIC. The procedure: FIG. 20 includes the Effect of the controls VOR (negative) and KANB (C14) (positive) as well as compounds 5-9 on the cell membrane integrity of C. albicans ATCC 10231 (strain A). […] The experiments were performed in duplicate.
PI is a membrane impermeable dye that cannot enter the intact cell unless the cell membrane is damaged. Using these compounds, we also wanted to determine how do the lengths of the alkyl side chains correlate with the membrane disruption potential of these antifungal agents.
Membrane permeabilization assay. […] Based on these findings, we assumed that the hybrids generated in this study could also potentially cause fungal death by disrupting the fungal membrane. To investigate this possible mechanism of action, we evaluated the effect of compounds 20 and 26 on fungal cell membrane integrity by using propidium iodide (PI) dye as a probe (FIG. 12). […] Afterwards, the dye binds to nucleic acid and fluoresces, which can be observed under a fluorescence microscope. […]
Therefore, we decided to study the potential effect of compounds 8 and 9 with C12 and C14 linear alkyl chains to determine the impact of chain length on membrane disruption (FIG. 20). […] The propidium iodide (PI) dye was used as a probe as it can only enter cells with compromised membrane and bind to nucleic acid to emit fluorescence, which can be observed under a fluorescence microscope. […]

Test [4] relates to C. albicans ATCC MYA-1003(R). The test is described as follows: MIC determination, strain G. Conditions: Candida albicans. It counts as cell-based, Candida albicans.
Excerpt: as §1, §2, §3, §4

For test [5], the system named is C. albicans ATCC 64124. The experiment in a line: MIC determination, strain B. It counts as cell-based, Candida albicans. Conditions: Candida albicans, ATCC64124. The procedure:
The antifungal activity of our new azole compounds 1-9 and 24-41 was first evaluated against a panel of seven Candida albicans strains (A-G), three non-albicans Candida strains […], and three Aspergillus strains (K-M) in a concentration range of 0.03-31.2 μg/mL (Table 1). […] For all of our azole derivatives we report their MIC-0 values against C. albicans ATCC 10231 (strain A) and all Aspergillus strains (K-M), which correspond to complete growth inhibition of these fungi. […] The commercially available antifungals AmB, FLC, ITC, POS, and VOR were used as reference drugs for comparison. The MIC values presented for these five control drugs were either tested herein or correspond to our previously published data^5, 16 as indicated in Table 1.
Antifungal activity in the absence or presence of serum. The antifungal activity of the newly prepared alkylated piperazine/morpholine-azole hybrids 16-28, of intermediate 14 that we used to verify that only final compounds exert antifungal activity, as well as that of alkylated piperazine/morpholine derivatives 1-10 were first evaluated against a panel of seven C. albicans (ATCC 10231 (A), ATCC 64124(R) (B), ATCC MYA-2876(S) (C), ATCC 90819(R) (D), ATCC MYA-2310(S) (E), ATCC MYA-1237(R) (F), and ATCC MYA-1003(R) (G)), three non-albicans Candida (C. glabrata ATCC 2001 (H), C. krusei ATCC 6258 (I), and C. parapsilosis ATCC 22019 (J)), and three Aspergillus (A. flavus ATCC MYA-3631 (K), A. nidulans ATCC 38163 (L), and A. terreus ATCC MYA-3633 (M)) strains using a concentration range of 0.03-31.3 μg/mL (Table 2).
Commercially available antifungal agents such as AmB, CAS, FLC, and VOR were used as positive controls for comparison. […] It is important to note that all comparisons to follow will be done by using the MIC values reported in μg/mL as the data were collected that way. However, we also present in parentheses in Table 2 the corresponding values in micromolar.
We used the commercially available antifungal agents such as AmB, caspofungin (CAS), FLC, and VOR as positive controls for comparison. For derivatives 5-16 as well as the reference drugs AmB and CAS, we reported MIC-0 values, which correspond to no visible growth. […] In this manuscript, we performed all activity comparisons by using the MIC values reported in μg/mL (Note: the corresponding MIC values are also provided in μM into parentheses in Tables 1, 2, S1, and S2).

Test [6] deals with Aspergillus nidulans ATCC 38163. The experiment in a line: MIC determination, strain L. It counts as cell-based.
Excerpt: as §1, §2, §3, §4

The subject of test [7] is C. albicans ATCC 64124. Particulars: Table 1; strain B; control azoles; previously reported (refs 5, 16); cited from earlier work.
The mark [8] stands for this setting: read-out: MIC (MIC-2), in parentheses.

As a reminder, the MIC is the smallest concentration in the dilution series that meets the test's criterion for growth inhibition. As for `C[C@@H](c1ncncc1F)[C@](O)(Cn1cncn1)c1ccc(F)cc1F` [VOR, voriconazole], the results for the “MIC (MIC-2)” value (with Candida krusei ATCC 6258; in test [1]; with C. albicans ATCC 64124 [7]) were 0.12^c μg/mL, <0.03^c μg/mL and 3.9^c μg/mL, respectively. The MIC in test [2] (read-out: MIC (MIC-2)) came out at 7.8 µg/mL; in test [2] (setting [8]), 22.3 µM; in test [4] (read-out: MIC (MIC-2)), 1.95 µg/mL; in test [4] (setting [8]), 5.6 µM; with C. albicans ATCC 64124 [5] (read-out: MIC (MIC-2)), 3.9 µg/mL; with C. albicans ATCC 64124 [5] (setting [8]), 11.2 µM. The MIC stood at 0.12 µg/mL in test [6] (ATCC38163, Table 2, strain L, all compounds and controls, read-out: MIC (MIC-0)); 0.34 µM in test [6] (ATCC38163, Table 2, strain L, all compounds and controls, read-out: MIC (MIC-0), in parentheses); 0.12 µg/mL in test [6] (ATCC38163, Table 3, Ex.2 compounds, no FBS, read-out: MIC, Aspergillus nidulans ATCC 38163 (L) (no FBS)); 0.12 µg/mL in test [6] (ATCC38163, read-out: MIC, Aspergillus nidulans ATCC 38163 (L) (+10% FBS), Table 3, Ex.2 compounds, +10% FBS). The “PI dye uptake by fungal cells” value in test [3] is given as “did not allow for PI uptake”.
